According to patent US20230124862A1, “BISMUTH THIOL COMPOUNDS AND COMPOSITIONS AND METHODS OF TREATING MICROBIAL CO-INFECTIONS” (Microbion Corporation, priority 2020, published 2023):

What was measured:
Assay in all cases: Antifungal broth microdilution (Example 13)
Aspergillus spp. = type: cell-based, A. niger, A. terreus, A. fumigatus, A. flavus; details: complete inhibition, comparator, time not stated
Candida krusei = type: cell-based; details: for MIC0: complete inhibition; for MIC2: 50% inhibition
Candida auris = type: cell-based; details: for MIC0: complete inhibition; for MIC2: 50% inhibition
Candida albicans = type: cell-based; details: 24 hr; for MIC0: complete inhibition; for MIC2: 50% inhibition
Candida glabrata = type: cell-based; details: for MIC0: complete inhibition; for MIC2: 50% inhibition
[1] = C. krusei ATCC 14243, Susceptible
[2] = C. krusei ATCC 96685, Susceptible
[3] = C. krusei MMX 7125, Susceptible
[4] = C. krusei MMX 7128, Susceptible
[5] = C. krusei MMX 7141, Susceptible
[6] = C. krusei MMX 7155, Susceptible
[7] = C. krusei MMX 7563, Susceptible
[8] = C. krusei MMX 9878, MICA-I, VORI-I
[9] = C. auris MMX 9863, FLU-R, VORI-R
[10] = C. auris MMX 9864, FLU-R, VORI-R
[11] = C. auris MMX 9865, FLU-R, VORI-R
[12] = C. auris MMX 9866, FLU-R, VORI-R
[13] = C. auris MMX 9867, FLU-R, VORI-R
[14] = C. auris MMX 9868, FLU-R, VORI-R
[15] = C. auris MMX 9869, FLU-R, VORI-R
[16] = C. auris MMX 9870, FLU-R, VORI-R
[17] = C. albicans ATCC 90028, Susceptible
[18] = C. albicans ATCC 204276, MICA-R
[19] = C. albicans ATCC MYA-2732, FLU-R, VORI-I
[20] = C. albicans MMX 7053, Susceptible
[21] = C. albicans MMX 7067, FLU-R, VORI-R
[22] = C. albicans MMX 7403, Susceptible
[23] = C. albicans MMX 7424, CASP-R, MICA-R
[24] = C. albicans MMX 7430, Susceptible
[25] = C. albicans MMX 7445, FLU-R, VORI-R
[26] = C. glabrata ATCC 90030, Susceptible
[27] = C. glabrata ATCC MYA-2950, Susceptible
[28] = C. glabrata MMX 7087, Susceptible
[29] = C. glabrata MMX 7103, CASP-R, MICA-R
[30] = C. glabrata MMX 7111, Susceptible
[31] = C. glabrata MMX 7285, CASP-R, MICA-R
[32] = C. glabrata MMX 7307, CASP-R, MICA-R, FLU-R
[33] = C. glabrata MMX 7549, Susceptible

Structure (SMILES): C[C@@H]1[C@H](O)[C@@H](C)/C=C/C=C/C=C/C=C/C=C/C=C/C=C/[C@H](O[C@@H]2O[C@H](C)[C@@H](O)[C@H](N)[C@@H]2O)C[C@@H]2O[C@](O)(C[C@@H](O)C[C@@H](O)[C@H](O)CC[C@@H](O)C[C@@H](O)CC(=O)O[C@H]1C)C[C@H](O)[C@H]2C(=O)O [AMP B]
- MIC0 (Aspergillus spp.; A. flavus ATCC 22546): 1 µg/mL
- MIC0 (Aspergillus spp.; A. flavus ATCC 204304): 1 µg/mL
- MIC0 (Aspergillus spp.; A. flavus MMX 7935): 1 µg/mL
- MIC0 (Aspergillus spp.; A. fumigatus ATCC 204305): 1 µg/mL
- MIC0 (Aspergillus spp.; A. fumigatus ATCC MYA-3626): 1 µg/mL
- MIC0 (Aspergillus spp.; A. fumigatus MMX 5934): 1 µg/mL
- MIC0 (Aspergillus spp.; A. fumigatus MMX 5938): 1 µg/mL
- MIC0 (Aspergillus spp.; A. fumigatus MMX 5939): 1 µg/mL
- MIC0 (Aspergillus spp.; A. niger ATCC 29508): 0.25 µg/mL
- MIC0 (Aspergillus spp.; A. terreus MMX 8229): 0.25 µg/mL
- MIC0 (Candida krusei; C. krusei ATCC 6258, MICA-I): 0.5 µg/mL
- MIC0 (Candida krusei; [1]): 0.25 µg/mL
- MIC0 (Candida krusei; [2]): 0.5 µg/mL
- MIC0 (Candida krusei; [3]): 0.5 µg/mL
- MIC0 (Candida krusei; [4]): 0.5 µg/mL
- MIC0 (Candida krusei; [5]): 0.25 µg/mL
- MIC0 (Candida krusei; C. krusei MMX 7153, MICA-R): 0.5 µg/mL
- MIC0 (Candida krusei; [6]): 0.25 µg/mL
- MIC0 (Candida krusei; [7]): 0.5 µg/mL
- MIC0 (Candida krusei; [8]): 0.5 µg/mL
- MIC0 (Candida auris; C. auris MMX 9862, Susceptible): 0.25 µg/mL
- MIC0 (Candida auris; [9]): 0.12 µg/mL
- MIC0 (Candida auris; [10]): 0.25 µg/mL
- MIC0 (Candida auris; [11]): 0.25 µg/mL
- MIC0 (Candida auris; [12]): 0.5 µg/mL
- MIC0 (Candida auris; [13]): 0.5 µg/mL
- MIC0 (Candida auris; [14]): 0.25 µg/mL
- MIC0 (Candida auris; [15]): 1 µg/mL
- MIC0 (Candida auris; [16]): 1 µg/mL
- MIC0 (Candida auris; C. auris MMX 9871, Susceptible): 1 µg/mL
- MIC0 (Candida albicans; [17]): 0.25 µg/mL
- MIC0 (Candida albicans; [18]): 0.25 µg/mL
- MIC0 (Candida albicans; [19]): 0.25 µg/mL
- MIC0 (Candida albicans; [20]): 0.12 µg/mL
- MIC0 (Candida albicans; [21]): 0.25 µg/mL
- MIC0 (Candida albicans; [22]): 0.25 µg/mL
- MIC0 (Candida albicans; [23]): 0.25 µg/mL
- MIC0 (Candida albicans; [24]): 0.25 µg/mL
- MIC0 (Candida albicans; C. albicans MMX 7437, FLU-I): 0.25 µg/mL
- MIC0 (Candida albicans; [25]): 0.12 µg/mL
- MIC0 (Candida glabrata; [26]): 0.25 µg/mL
- MIC0 (Candida glabrata; [27]): 0.12 µg/mL
- MIC0 (Candida glabrata; [28]): 0.12 µg/mL
- MIC0 (Candida glabrata; C. glabrata MMX 7093, FLU-R): 0.25 µg/mL
- MIC0 (Candida glabrata; C. glabrata MMX 7101, FLU-R): 0.25 µg/mL
- MIC0 (Candida glabrata; [29]): 0.25 µg/mL
- MIC0 (Candida glabrata; [30]): 0.25 µg/mL
- MIC0 (Candida glabrata; [31]): 0.25 µg/mL
- MIC0 (Candida glabrata; [32]): 0.25 µg/mL
- MIC0 (Candida glabrata; [33]): 0.25 µg/mL

Structure (SMILES): C[C@@H](c1ncncc1F)[C@](O)(Cn1cncn1)c1ccc(F)cc1F [VORI]
- MIC0 (Aspergillus spp.; A. flavus ATCC 22546): 1 µg/mL
- MIC0 (Aspergillus spp.; A. flavus ATCC 204304): 2 µg/mL
- MIC0 (Aspergillus spp.; A. flavus MMX 7935): 0.5 µg/mL
- MIC0 (Aspergillus spp.; A. fumigatus ATCC 204305): 0.5 µg/mL
- MIC0 (Aspergillus spp.; A. fumigatus ATCC MYA-3626): 0.5 µg/mL
- MIC0 (Aspergillus spp.; A. fumigatus MMX 5934): 0.25 µg/mL
- MIC0 (Aspergillus spp.; A. fumigatus MMX 5938): 0.25 µg/mL
- MIC0 (Aspergillus spp.; A. fumigatus MMX 5939): 7 µg/mL
- MIC0 (Aspergillus spp.; A. niger ATCC 29508): 0.5 µg/mL
- MIC0 (Aspergillus spp.; A. terreus MMX 8229): 0.25 µg/mL
- MIC2 (Candida krusei; C. krusei ATCC 6258, MICA-I): 0.12 µg/mL
- MIC2 (Candida krusei; [1]): 0.06 µg/mL
- MIC2 (Candida krusei; [2]): 0.5 µg/mL
- MIC2 (Candida krusei; [3]): 0.25 µg/mL
- MIC2 (Candida krusei; [4]): 0.12 µg/mL
- MIC2 (Candida krusei; [5]): 0.12 µg/mL
- MIC2 (Candida krusei; C. krusei MMX 7153, MICA-R): 0.25 µg/mL
- MIC2 (Candida krusei; [6]): 0.25 µg/mL
- MIC2 (Candida krusei; [7]): 0.25 µg/mL
- MIC2 (Candida krusei; [8]): 1 µg/mL
- MIC2 (Candida auris; C. auris MMX 9862, Susceptible): 0.03 µg/mL
- MIC2 (Candida auris; [9]): >8 µg/mL
- MIC2 (Candida auris; [10]): 7 µg/mL
- MIC2 (Candida auris; [11]): 8 µg/mL
- MIC2 (Candida auris; [12]): 8 µg/mL
- MIC2 (Candida auris; [13]): 8 µg/mL
- MIC2 (Candida auris; [14]): >8 µg/mL
- MIC2 (Candida auris; [15]): 2 µg/mL
- MIC2 (Candida auris; [16]): 4 µg/mL
- MIC2 (Candida auris; C. auris MMX 9871, Susceptible): 1 µg/mL
- MIC2 (Candida albicans; [17]): ≤0.008 µg/mL
- MIC2 (Candida albicans; [18]): ≤0.008 µg/mL
- MIC2 (Candida albicans; [19]): 0.5 µg/mL
- MIC2 (Candida albicans; [20]): ≤0.008 µg/mL
- MIC2 (Candida albicans; [21]): >8 µg/mL
- MIC2 (Candida albicans; [22]): ≤0.008 µg/mL
- MIC2 (Candida albicans; [23]): ≤0.008 µg/mL
- MIC2 (Candida albicans; [24]): ≤0.008 µg/mL
- MIC2 (Candida albicans; C. albicans MMX 7437, FLU-I): 0.12 µg/mL
- MIC2 (Candida albicans; [25]): >8 µg/mL
- MIC2 (Candida glabrata; [26]): 0.12 µg/mL
- MIC2 (Candida glabrata; [27]): 0.12 µg/mL
- MIC2 (Candida glabrata; [28]): 0.03 µg/mL
- MIC2 (Candida glabrata; C. glabrata MMX 7093, FLU-R): 2 µg/mL
- MIC2 (Candida glabrata; C. glabrata MMX 7101, FLU-R): 2 µg/mL
- MIC2 (Candida glabrata; [29]): 0.12 µg/mL
- MIC2 (Candida glabrata; [30]): 0.06 µg/mL
- MIC2 (Candida glabrata; [31]): 1 µg/mL
- MIC2 (Candida glabrata; [32]): 4 µg/mL
- MIC2 (Candida glabrata; [33]): 0.06 µg/mL
